# According to patent US4418060A, “Therapeutically active complexes of tetracyclines” (priority 1971, dated 1983):
# How the values were obtained:
# [1] = Chloroform/water distribution quotient; format: physicochemical; conditions: pH=7.4
# From the text: The solution is filled into ampoules in nitrogen atmosphere.
# [2] = Toxicity data (LD50) of tetracyclines and Tri-tetracyclines in mice; conditions: mouse, in vivo, oral
# [3] = test system: tetracycline-resistant Proteus strains; conditions: cited from earlier work
# [4] = background statement; cited from earlier work
# [5] = cited from earlier work
# [6] = cited from earlier work; remark: listed apart in the source
# [7] = per os; cited from earlier work
# [8] = cited from earlier work; remark: listed apart in the source
smiles,measurement,setting,value
"CN(C)[C@@H]1C(=O)C(C(N)=O)=C(O)[C@@]2(O)C(=O)C3=C(O)c4c(O)cccc4[C@@](C)(O)[C@H]3[C@H](O)[C@@H]12 [OTC, 5-hydroxytetracycline]",chloroform/water distribution quotient K,[1],0.008
same,LD50,[2],2500 mg/kg
"CC(=O)C1=C(O)C2(O)C(=O)c3c(c(C)c4ccc(C)c(O)c4c3O)CC2C(N)C1=O (stereo not drawn) [chelocardin, 2-decarboxamido-2-acetyl-4-dedimethylamino-4-epiamino-9-methyl-5a,6-anhydrotetracyline]",effect against tetracycline-resistant Proteus,[3],effective
same,water solubility,[4],lower than that of other tetracyclines
same,absorption,[5]; peroral,low absorption value
same,lipid solubility,[6],moderately lipid soluble
"C[C@H]1c2cccc(O)c2C(O)=C2C(=O)[C@]3(O)C(O)=C(C(N)=O)C(=O)[C@@H](N(C)C)[C@@H]3[C@@H](O)[C@@H]21 [doxycycline, 6-deoxy-5-hydroxytetracycline]",gastrointestinal disorders,[7],gastrointestinal disorders can be observed
same,excretion,[5]; in vivo,with faeces as well
NC(CO)(CO)CO [tris(hydroxymethyl)aminomethane],pK,[8],8.33
